# Measured values from patent publication US6822146B2, “Sulfonylurea-tolerant sunflower line M7” (priority 2000, dated 2004).
# Experiments:
# BC2-M3M12 = experiment: Test G control of volunteer sunflower, BC2-M3M12; type: in vivo; details: rated 4 weeks after application, scale 0-100
# [1] = system: H89A × RHA274 (sulfonylurea-susceptible hybrid); experiment: Test G control of volunteer sunflower, H89A × RHA274; type: in vivo; details: rated 4 weeks after application, scale 0-100
# BC2-M3M11 = experiment: Test G control of volunteer sunflower, BC2-M3M11; type: in vivo; details: rated 4 weeks after application, scale 0-100
# [2] = system: mutants originating from M11 and M12; details: Test G rates
# Description: This test involved sulfonylurea-resistant sunflower progeny BC2-M3M11 and BC2-M3M12, derived from M11 and M12, respectively. Also, a sulfonylurea-susceptible hybrid, H89A×RHA274, was included for comparison. Plants were sprayed with formulated herbicides at the 4-leaf stage. The efficacy of the treatments on the sunflowers was visually rated 4 weeks after application, using a scale where 0 means no control of the sunflowers, 85 means sufficient efficacy level to stop plants from flowering and propagating, and 100 means a complete destruction of the mutants.
# Weed control in sugar beet requires 2-3 herbicide applications per season to efficiently control weeds in this slow growing crop.
# H89A × M4M7 = type: in vivo, sunflower; details: variety H; 30 g a.i./ha post-emergence
# Description: (§1) To generate the hybrids C, D and E, the fourth generation self-pollinated maintainer mutant lines M4M12, M4M11 and M4M7 were chemically sterilized by applying at the bud “star” flower stage a small amount of gibberellic acid solution to sterilize the pollen according to the general method described in Sunflower Science Technology, J. F. Carter ed. (Number 19 in the series “Agronomy”) pp. 339-386. This treatment enables maintainer plants to behave as CMS inbred lines and allows the production of heterozygous resistant hybrids, with the herbicide resistant source coming from the female side. Such crosses allowed evaluating the sexual effect of the mutation source when introduced on the female side of a cross as described in crosses C, D and E versus the male side of a cross as described in crosses F, G and H. Labels I, J and K identify third generation CMS mutant lines crossed with fourth generation maintainer lines to maintain the highly heritable mutant trait in a male sterile homozygous resistant environment. One skilled in sunflower breeding art understands the meaning of such crosses.
# (§2) A rating of 0% phytotoxicity means no crop injury.
# H89A × M4M12 = type: in vivo, sunflower; details: variety F; 30 g a.i./ha post-emergence
# Description: as §1, §2
# H89A × M4M11 = type: in vivo, sunflower; details: variety G; 30 g a.i./ha post-emergence
# Description: as §1, §2
# [3] = system: Inbred line control: H89A; type: in vivo, sunflower; details: variety B; 30 g a.i./ha post-emergence
# Description: as §1, §2
# [4] = system: Hybrid control: H89A × RHA274; type: in vivo, sunflower; details: variety A; 30 g a.i./ha post-emergence
# Description: as §1, §2
# BC3-M4M7 = experiment: Test A field trial, phytotoxicity, variety K; type: in vivo, sunflower; details: variety K; 30 g a.i./ha post-emergence
# Description: as §1, §2
# BC3-M4M11 = experiment: Test A field trial, phytotoxicity, variety J; type: in vivo, sunflower; details: variety J; 30 g a.i./ha post-emergence
# Description: as §1, §2
# [5] = system: Homozygous resistant inbred lines, BC3-M4M12 (I), BC3-M4M11 (J) and BC3-M4M7 (K); experiment: Test A summary, homozygous resistant inbred lines; details: Test A application rates
# Experimental: In a small field trial, the sunflower varieties described in Table 4 were sprayed post-emergence with a variety of sulfonylurea herbicide treatments.
# Broadcast post-emergence applications of formulated sulfonylurea herbicides were performed at the 6-leaf development stage using four randomly distributed replications. Application rates were chosen to match the usual use rates of these herbicides in the crops they are registered in Europe. All herbicides except for metsulfuron-methyl were sprayed in combination with Citowet® non-ionic ethoxylated alcohol at 0.25% volume of formulated product per volume of water applied per hectare.
# The evaluation of the maximum (i.e. peak) injury to sunflower varieties by sulfonylurea herbicides was measured by visual ratings, which are listed in Table 5. A rating of 0% phytotoxicity means no crop injury. […] A rating of 100% means the complete destruction of all plants.
# BC3-M4M12 = experiment: Test A field trial, phytotoxicity, variety I; type: in vivo, sunflower; details: variety I; 30 g a.i./ha post-emergence
# Description: as §1, §2
# GA-M4M11 × RHA274 = experiment: Test A field trial, phytotoxicity, variety D; type: in vivo, sunflower; details: variety D; 30 g a.i./ha post-emergence
# Description: as §1, §2
# GA-M4M12 × RHA274 = experiment: Test A field trial, phytotoxicity, variety C; type: in vivo, sunflower; details: variety C; 30 g a.i./ha post-emergence
# Description: as §1, §2
# GA-M4M7 × RHA274 = experiment: Test A field trial, phytotoxicity, variety E; type: in vivo, sunflower; details: variety E; 30 g a.i./ha post-emergence
# Description: as §1, §2
structure (smiles),measurement,setting,value
COC(=O)Nc1cccc(OC(=O)Nc2cccc(C)c2)c1 [Phenmedipham],Efficacy on BC2-M3M12,BC2-M3M12; 240 g a.i./ha,7
same,Efficacy on H89A × RHA274,[1]; 240 g a.i./ha,0
same,Efficacy on BC2-M3M11,BC2-M3M11; 240 g a.i./ha,0
same,control of sulfonylurea-susceptible or sulfonylurea-resistant volunteer sunflowers,[2]; phenmedipham alone or combined with triflusulfuron-methyl,ineffective alone
"O=C(O)COc1ccc(Cl)cc1Cl [2,4-D, 2,4-dichlorophenoxyacetic acid]",Efficacy on BC2-M3M12,BC2-M3M12; 530 g a.i./ha,100
same,Efficacy on H89A × RHA274,[1]; 530 g a.i./ha,100
same,Efficacy on BC2-M3M11,BC2-M3M11; 530 g a.i./ha,100
same,efficacy against the mutants,[2],completely-destroyed
"COC(=O)c1ccccc1S(=O)(=O)NC(=O)Nc1nc(OC(F)F)cc(OC(F)F)n1 [Primisulfuron-methyl, primisulfuron-methyl]",Maximum Phytotoxicity,H89A × M4M7,69%
same,Maximum Phytotoxicity,H89A × M4M12,66%
same,Maximum Phytotoxicity,H89A × M4M11,73%
same,Maximum Phytotoxicity,[3],100%
same,Maximum Phytotoxicity,[4],100%
same,Maximum Phytotoxicity,BC3-M4M7,51%
same,Maximum Phytotoxicity,BC3-M4M11,55%
same,tolerance of homozygous resistant lines compared with heterozygous hybrids,[5],the homozygous resistant lines were more tolerant
same,"tolerance of homozygous resistant inbred lines I, J, K",[5]; triflusulfuron-methyl at 20 g a.i./ha,less susceptible than the standards
same,Maximum Phytotoxicity,BC3-M4M12,35%
same,Maximum Phytotoxicity,GA-M4M11 × RHA274,75%
same,Maximum Phytotoxicity,GA-M4M12 × RHA274,71%
same,Maximum Phytotoxicity,GA-M4M7 × RHA274,74%
